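Cells were grown in 96-well plates and exposed to each compound for 48 hours at five concentrations; endpoints were interpolated linearly between bracketing concentrations, or set to the highest concentration if not reached. GI50 is the concentration that inhibits growth by half. TGI marks complete inhibition of growth.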
How the values were obtained:
Assay in all cases: DTP human tumour cell line panel, 48 h
[1] = system: M14 melanoma
[2] = system: SK-MEL-5 melanoma
[3] = system: MOLT-4 leukemia
[4] = system: SNB-19 CNS
[5] = system: HCC-2998 colon
[6] = system: MDA-MB-231 breast
[7] = system: IGROV1 ovarian
[8] = system: UACC-257 melanoma
[9] = system: SW-620 colon
[10] = system: SK-MEL-2 melanoma

Compound	GI50 [1]	TGI [1]	GI50 [2]	TGI [2]	GI50 [3]	TGI [3]	GI50 [4]	TGI [4]	GI50 [5]	TGI [5]	GI50 [6]	TGI [6]	GI50 [7]	TGI [7]	GI50 [8]	TGI [8]	GI50 [9]	TGI [9]	GI50 [10]	TGI [10]
CC[C@H](CO)Nc1nc(NCc2ccccc2)n2ncc(C(C)C)c2n1	2 µM	7.93 µM	1.78 µM	4.96 µM	2.18 µM	9.46 µM	1.44 µM	12.3 µM	1.2 µM	3.27 µM	2.37 µM	9.47 µM	0.782 µM	> 100 µM	3.56 µM	15 µM	1.38 µM	5.56 µM	1.47 µM	6 µM
CS[C@]12C(=O)C[C@@]3(C)[C@@H](CC[C@]3(O)C(=O)CO)[C@@H]1CCC1=CC(=O)CC[C@@]12C	–	> 100 µM	–	> 100 µM	–	> 100 µM	–	> 100 µM	–	80.2 µM	–	> 100 µM	–	> 100 µM	–	> 100 µM	–	> 100 µM	–	> 100 µM
Nc1nc(Nc2ccc(C3CCC(N4CCOCC4)CC3)cc2)nn1-c1ccccn1 (stereo not given)	4.36 µM	> 36.8 µM	20.8 µM	> 88.3 µM	2.86 µM	20.1 µM	7.38 µM	> 100 µM	17.2 µM	> 100 µM	5.34 µM	> 100 µM	3.57 µM	> 100 µM	3.43 µM	12.2 µM	3.4 µM	> 100 µM	7.77 µM	> 61.8 µM
CC#CC(=O)SCCNC(=O)CC	–	> 10 µM	–	> 10 µM	–	> 8.86 µM	–	> 10 µM	–	> 10 µM	–	> 10 µM	–	> 10 µM	–	> 10 µM	–	> 10 µM	–	> 10 µM
COc1c(Cl)cc(NC(=S)C#N)cc1Cl	–	64.4 µM	–	32.9 µM	–	> 100 µM	–	> 100 µM	–	32.6 µM	–	36.1 µM	–	> 82.6 µM	–	53.9 µM	–	> 100 µM	–	86.2 µM
CC1=C(CO)C(=O)O[C@@H]([C@@H](C)[C@H]2CC[C@H]3[C@@H]4C[C@@H](O)[C@@]5(O)CC=CC(=O)[C@]5(C)[C@H]4CC[C@]23C)C1	–	> 100 µM	–	> 100 µM	–	> 100 µM	–	> 100 µM	–	> 100 µM	–	> 100 µM	–	31.6 µM	–	> 100 µM	–	47.4 µM	–	> 100 µM
O=C(Nc1ccc(Cl)cc1)Nc1ccc(Nc2nncc3ccccc23)cc1	1.52 µM	11.5 µM	2.31 µM	6.82 µM	2.09 µM	6.36 µM	3.67 µM	19 µM	3.26 µM	19.8 µM	3.4 µM	15.9 µM	2.52 µM	30.7 µM	3.41 µM	10.8 µM	3.16 µM	18.6 µM	2.7 µM	7.7 µM
O=C1c2c(O)cccc2C(C2OC(CO)C(O)C(O)C2O)c2cc(CO)cc(O)c21 (stereo not given)	–	> 100 µM	–	> 100 µM	–	> 100 µM	–	> 100 µM	–	> 100 µM	–	> 100 µM	–	> 100 µM	–	> 100 µM	–	> 100 µM	–	> 100 µM
